Values of other authors in publication PMC5589927, “Visualization of ligand-induced dopamine D2S and D2L receptor internalization by TIRF microscopy” (Scientific Reports, 2017).

Assays:
D2S receptors = conditions: stably transfected CHO cells, ref 46 (Itokawa et al.)
D2L receptors = conditions: stably transfected CHO cells, ref 46 (Itokawa et al.)

NCCc1ccc(O)c(O)c1 [dopamine]
surface expressed D2S receptors unavailable for [3H]sulpiride (internalization) (D2S receptors; after incubation with agonist): about 44% | half-life of decrease D2S (D2S receptors): 19 min | internalization of D2L (D2L receptors; after incubation with agonist): 22% | half-life of decrease D2L (D2L receptors): 33 min
